Read-outs that look alike come from different tables or passages of the source.
Experiments:
[1] = rat brain microdialysis, HPLC/UV; cited from earlier work
paraoxon-hAChE [2] = target: T1, paraoxon-hAChE (Homo sapiens, UniProt P22303); type: biochemical
paraoxon-hAChE [3] = target: T1, paraoxon-hAChE; settings: cited from earlier work

T1 sequence (P22303 32-574): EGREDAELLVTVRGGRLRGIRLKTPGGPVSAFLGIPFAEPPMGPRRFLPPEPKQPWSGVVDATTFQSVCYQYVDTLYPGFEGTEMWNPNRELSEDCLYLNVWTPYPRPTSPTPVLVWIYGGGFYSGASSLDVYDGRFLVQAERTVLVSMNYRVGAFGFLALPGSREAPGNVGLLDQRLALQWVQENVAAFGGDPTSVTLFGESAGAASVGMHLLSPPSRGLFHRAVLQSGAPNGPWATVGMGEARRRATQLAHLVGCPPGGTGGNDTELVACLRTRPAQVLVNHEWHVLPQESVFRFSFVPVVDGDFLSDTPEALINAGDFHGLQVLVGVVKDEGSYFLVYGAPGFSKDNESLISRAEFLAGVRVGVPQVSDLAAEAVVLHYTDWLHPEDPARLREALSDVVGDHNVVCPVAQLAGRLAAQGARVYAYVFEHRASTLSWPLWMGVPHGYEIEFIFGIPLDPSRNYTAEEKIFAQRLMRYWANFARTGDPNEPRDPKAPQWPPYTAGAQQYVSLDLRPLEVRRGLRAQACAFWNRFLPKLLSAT

| SMILES | kr (paraoxon-hAChE [2]) | kr2 (paraoxon-hAChE [2]) | also measured |
| --- | --- | --- | --- |
| C[n+]1ccccc1/C=N/O [Compound 2-PAM] |  |  | BBB penetration [1]: 10% |
| ON=Cc1nccc(CCCCCNc2c3c(nc4ccccc24)CCCC3)c1O [Compound 10, 2-[(hydroxyimino)methyl]-4-{5-[(1,2,3,4-tetrahydroacridin-9-yl)amino]pentyl}pyridin-3-ol] |  |  | reactivation of paraoxon inhibited hAChE (paraoxon-hAChE [2]): no reactivation |
| O/N=C/c1nc(CCCCCNc2c3c(nc4ccccc24)CCCC3)ccc1O [Compound 11, 2-[(1E)-(hydroxyimino)methyl]-6-{5-[(1,2,3,4-tetrahydroacridin-9-yl)amino]pentyl}pyridin-3-ol] | 0.0228 ± 0.0006 min⁻¹ | 348 M⁻¹ s⁻¹ |  |
| ON=Cc1nc(CCCCNc2c3c(nc4ccccc24)CCCC3)ccc1O [Compound 12, 2-[1-(hydroxyimino)methyl]-6-{4-[(1,2,3,4-tetrahydroacridin-9-yl)amino]butyl}pyridin-3-ol] | 0.111 ± 0.002 min⁻¹ | 517 M⁻¹ s⁻¹ |  |
| ON=Cc1nc(CCCCNc2c3c(nc4ccc(Cl)cc24)CCCC3)ccc1O [Compound 15, 6-(4-((7-Chloro-1,2,3,4-tetrahydroacridin-9-yl)amino)butyl)-3-hydroxy-picolin-aldehyde oxime] | 0.11 ± 0.01 min⁻¹ | 317 M⁻¹ s⁻¹ |  |
| ON=Cc1cc[n+](CCC[n+]2ccc(/C=N/O)cc2)cc1 [Trimedoxime] |  |  | kr (paraoxon-hAChE [3]): 0.34 ± 0.02 ^a min^−1; kr2 (paraoxon-hAChE [3]): 17 ^a mM^−1min^−1 |

Reference: patent publication US20160272620A1 (priority 2013, published 2016)
